In patent US7820759B2, “Micellar preparation containing sparingly water-soluble anticancer agent and novel block copolymer” (Nippon Kayaku Kabushiki Kaisha, priority 2003, dated 2010):
Where “and” joins values, the source holds several entries; their conditions need not be identical. Equal entries are not always repeated.

Tests used:
[1] = tested on: mouse colon cancer Colon 26 cells; experiment: In vivo antitumor effect against Colon 26; conditions: average tumor volume treated/untreated, 11 days after treatment, 30 mg/kg in terms of paclitaxel, tail vein, 5 consecutive days, female CDF1 mice
Protocol: Female CDF1 mice were inoculated subcutaneously at the back thereof with the mouse colon cancer Colon 26 cells, and, from the point of time when the volume of tumor has reached around 100 mm^3, micellar preparation 10 according to the invention, the micellar composition from Comparative Example, or paclitaxel was administered through the tail veins of the mice for consecutive 5 days to examine effects against advanced cancer. Each agent was used directly, or after dilution with saline before use. The concentration of each agent was expressed in terms of paclitaxel. The antitumor effect of agent was judged on the basis of a percentage of the average tumor volume in treated group to the average tumor volume in untreated group (T/C %) 11 days after agent treatment.

[2] = Transition of paclitaxel concentrations in the rat plasma; assay type: in vivo; conditions: intravenous, 5 mg/kg paclitaxel equivalent, tail vein, male SD rats
Protocol: Micellar preparation 10 from Example 9 was diluted with normal saline solution to make an aqueous solution having a concentration of 2.5 mg/mL in terms of paclitaxel. Paclitaxel alone was dissolved in ethanol, to which Cremophor (Sigma) was then added in the same amount as ethanol to prepare in such a way that the concentration of paclitaxel was adjusted to 25 mg/mL, followed by dilution to 2.5 mg/mL with normal saline solution immediately before administration. Micellar preparation 10 or paclitaxel alone was administered in an amount equivalent to paclitaxel 5 mg/kg to male SD rats through their tail veins, followed by taking blood samples from their cervical veins with time. The plasma obtained by centrifugation was diluted with an appropriate amount of water and subjected to three rounds of extraction with t-butyl methyl ether. The ether layer was recovered, dried up, and then dissolved in 50 μL of actonitrile, followed by quantitating paclitaxel using HPLC.

female CDF1 mice = experiment: Toxicity test against mouse extension reflex (peripheral nerve impairment); assay type: in vivo; conditions: 30 mg/kg in terms of paclitaxel, tail vein, 5 consecutive days, hind limbs
Protocol: Micellar preparation 10 or paclitaxel alone was administered to female CDF1 mice through their tail veins for consecutive 5 days to observe the extension reflex of their hind limbs providing an indication of peripheral nerve impairment due to paclitaxel. Each agent was prepared as described in Test Example 1, and used directly, or after dilution with saline before use. The dosages used were expressed in terms of paclitaxel.

**Q.** Which “T/C (%)” value [1] does the source give for `CC(=O)O[C@H]1C(=O)[C@@]2(C)[C@H]([C@H](OC(=O)c3ccccc3)[C@]3(O)C[C@H](OC(=O)[C@H](O)[C@@H](NC(=O)c4ccccc4)c4ccccc4)C(C)=C1C3(C)C)[C@]1(OC(C)=O)CO[C@@H]1C[C@@H]2O` [Paclitaxel, paclitaxel] here?
**A.** 40.0% and 37.5%

**Q.** And the “T/C (%)” value ([1]; listed as paclitaxel alone)?
**A.** 37.5% and 40.0%

**Q.** And the AUC(0-t) ([2]; read-out: AUC (0-360) (converted))?
**A.** 1170 ng·h/mL

**Q.** And the concentration at 10 min ([2]; blood drawing time 10 min)?
**A.** 1050 ng/mL

**Q.** What about the concentration at 30 min ([2]; blood drawing time 30 min) of the same compound?
**A.** 510 ng/mL

**Q.** What about the concentration at 60 min ([2]; blood drawing time 60 min) of the same compound?
**A.** 260 ng/mL

**Q.** And the concentration at 120 min ([2]; blood drawing time 120 min)?
**A.** 100 ng/mL

**Q.** What about the concentration at 360 min ([2]; blood drawing time 360 min) of the same compound?
**A.** 35 ng/mL

**Q.** What about the “Mice showing extension reflex disappearance” value (female CDF1 mice) of the same compound?
**A.** 3/3

**Q.** What about the “Mice showing extension reflex disappearance” value (female CDF1 mice; listed as paclitaxel alone) of the same compound?
**A.** induced the disappearance of extension reflex in all mice
